The target in one test is T1, OR2W1 (Homo sapiens, UniProt Q9Y3N9).
T1 construct: expressed in transfected cells; host or cells: HEK293
T1 sequence (Q9Y3N9 1-320): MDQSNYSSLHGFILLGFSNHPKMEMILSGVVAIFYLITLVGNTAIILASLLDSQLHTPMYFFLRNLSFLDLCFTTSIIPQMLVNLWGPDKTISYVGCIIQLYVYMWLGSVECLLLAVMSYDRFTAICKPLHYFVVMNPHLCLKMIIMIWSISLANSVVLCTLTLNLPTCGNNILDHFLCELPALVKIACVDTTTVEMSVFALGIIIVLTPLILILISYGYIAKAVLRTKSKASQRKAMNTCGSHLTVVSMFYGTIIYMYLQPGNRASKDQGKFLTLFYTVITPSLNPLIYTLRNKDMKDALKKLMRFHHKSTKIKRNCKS
Briefly: Luciferase reporter gene assay, OR2W1 expressed in HEK293 cells. In kind it is cell-based. The following applies: for Inhibition of OR2W1 response to hexanoic acid (in words): 1 mM hexanoic acid, test substance 3, 10, 30, 100, 300 μM (FIG. 4). The procedure:
(§1) Cloning of human olfactory receptors was performed based on the sequence information registered in GenBank, through PCR with human genomic DNA female (G1521: Promega) as a template. Each of the genes amplified through PCR was inserted into a pENTR vector (Invitrogen) according to an instruction manual. Then, the gene-inserted vector was digested with NotI and AscI, and the obtained fragments were inserted into NotI and AscI sites located downstream of the Flag-Rho tag sequence in the pME18S vector.
(§2) Each of the 350 types of human olfactory receptors was expressed in HEK293 cells. A reaction solution having a composition shown in Table 2 was prepared on a clean bench, and left to stand for 15 minutes. The solution was dispensed to each well of a 96-well plate (BD). Subsequently, […] cells (100 μL, 3×10^5 cells/cm^2) were seeded in each well and cultured for 24 hours in an incubator at 37° C. and under 5% CO2 conditions.
(§3) The olfactory receptor expressed in HEK293 cell was conjugated with cell-intrinsic Gas to activate adenylate cyclase, and thereby the level of intracellular cAMP was increased. For the measurement of the response to odor in this study, the luciferase reporter gene assay was used, in which an increase in the amount of intracellular cAMP was monitored by using the emission value originating from firefly luciferase gene (fluc2P-CRE-hygro) as an indicator. Furthermore, a gene product obtained by fusing renilla luciferase gene in the downstream of CMV promoter (hRluc-CMV) was simultaneously introduced, and this was used as an internal standard for correcting an error in the transgenesis efficiency or the number of cells. The medium was removed from the culture prepared in the above-described section 3) by using a Pipetman, and 75 μl of a solution containing an odor substance (1 mM hexanoic acid or 300 μM nonanoic acid) prepared in CD293 medium (Invitrogen) was added thereto. The cells were cultured for 4 hours in a CO2 incubator, and the luciferase gene was sufficiently expressed in the cells. For the measurement of luciferase activity, the measurement was carried out by using a Dual-Glo™ luciferase assay system (Promega) according to the operation manual of the product. A value calculated by dividing the emission value, derived from a firefly luciferase induced by the stimulation with an odor substance, by the emission value in cells that were not-stimulated with an odor substance, was designated as a fold increase, and used as an index of response intensity.
(§4) OR2W1, OR10A6, OR51E1, OR51I2, and OR51L1 were respectively expressed in HEK293 cells by the same method as that used in Example 1, and a luciferase assay was carried out. In the luciferase assay, hexanoic acid was used as the odorous substance, and test substances were added together with hexanoic acid. The response of the olfactory receptors to hexanoic acid was measured, and a decrease in the receptor response to the addition of test substances was evaluated.
(§5) The inhibition ratios of the receptor response to test substances were calculated as follows. The emission value (Y) obtained from the cells in which the same receptors were introduced but no odor stimulation was conducted, was subtracted from the emission value derived from firefly luciferase (X) induced by odor stimulation with hexanoic acid alone. Similarly, the emission value (Y) obtained from the cells in which no odor stimulation was conducted, was subtracted from the emission value (Z) caused by stimulation with a mixture of hexanoic acid and a test substance. By the following calculation formula, the inhibitory activity of the test substance to receptor response was calculated based on the increment of the emission value (X−Y) caused by stimulation of hexanoic acid alone. Multiple independent experiments were performed in duplicate, and the average of each experiment was obtained. Inhibition ratio (%)={1−(Z−Y)/(X−Y)}×100 […]

A further test deals with T2, OR51E1 (Homo sapiens, UniProt Q8TCB6).
T2 construct: expressed in transfected cells; host or cells: HEK293
T2 sequence (Q8TCB6 1-318): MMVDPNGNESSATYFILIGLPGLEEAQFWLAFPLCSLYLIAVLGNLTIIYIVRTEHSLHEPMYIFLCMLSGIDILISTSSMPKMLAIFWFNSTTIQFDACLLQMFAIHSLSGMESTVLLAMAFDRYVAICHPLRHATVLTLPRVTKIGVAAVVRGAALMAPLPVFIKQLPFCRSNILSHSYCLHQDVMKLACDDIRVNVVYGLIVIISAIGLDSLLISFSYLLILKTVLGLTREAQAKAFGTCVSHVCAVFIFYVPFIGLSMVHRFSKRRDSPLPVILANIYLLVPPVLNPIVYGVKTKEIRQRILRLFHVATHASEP
Briefly: Luciferase reporter gene assay, OR51E1 expressed in HEK293 cells. In kind it is cell-based. To be noted: for Inhibition of OR51E1 response to hexanoic acid (in words): 1 mM hexanoic acid, test substance 3, 10, 30, 100, 300 μM (FIG. 4). The procedure: as §1, §2, §3, §4, §5
A general note: A reporter such as luciferase makes a cellular process visible.

For a further test, the target named is T3, OR51L1 (Homo sapiens, UniProt Q8NGJ5).
T3 construct: expressed in transfected cells; host or cells: HEK293
T3 sequence (Q8NGJ5 1-315): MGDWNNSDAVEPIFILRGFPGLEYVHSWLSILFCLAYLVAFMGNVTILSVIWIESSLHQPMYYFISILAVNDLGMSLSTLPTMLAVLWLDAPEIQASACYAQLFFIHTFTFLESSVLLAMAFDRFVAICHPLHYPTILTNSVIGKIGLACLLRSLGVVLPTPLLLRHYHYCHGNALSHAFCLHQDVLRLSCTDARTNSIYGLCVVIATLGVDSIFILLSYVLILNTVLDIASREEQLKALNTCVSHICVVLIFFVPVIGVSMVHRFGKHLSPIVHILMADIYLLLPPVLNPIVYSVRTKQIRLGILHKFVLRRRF
Briefly: Luciferase reporter gene assay, OR51L1 expressed in HEK293 cells. It is filed as cell-based. The following applies: for Inhibition of OR51L1 response to hexanoic acid (in words): 1 mM hexanoic acid, test substance 3, 10, 30, 100, 300 μM (FIG. 4). The procedure:
as §1, §2, §3, §4, §5

For a further test, the target named is T4, OR51I2 (Homo sapiens, UniProt Q9H344).
T4 construct: expressed in transfected cells; host or cells: HEK293
T4 sequence (Q9H344 1-312): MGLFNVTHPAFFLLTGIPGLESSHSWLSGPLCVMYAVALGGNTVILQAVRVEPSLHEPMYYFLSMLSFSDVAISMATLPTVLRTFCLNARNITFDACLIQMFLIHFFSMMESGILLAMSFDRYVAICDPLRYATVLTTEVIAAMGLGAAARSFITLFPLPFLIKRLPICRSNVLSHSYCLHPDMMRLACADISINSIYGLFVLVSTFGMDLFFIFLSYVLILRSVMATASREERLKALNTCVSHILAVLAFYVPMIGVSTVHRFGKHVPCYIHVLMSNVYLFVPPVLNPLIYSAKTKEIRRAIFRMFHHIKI
Briefly: Luciferase reporter gene assay, OR51I2 expressed in HEK293 cells. The following applies: for Inhibition of OR51I2 response to hexanoic acid (in words): 1 mM hexanoic acid, test substance 3, 10, 30, 100, 300 μM (FIG. 4). In kind it is cell-based. The procedure:
as §1, §2, §3, §4, §5

The nature of test [1]: Sensory evaluation test of hexanoic acid odor inhibition. It is filed as in vivo. As for the experimental part:
Cotton balls were introduced into a glass bottle (Hakuyo Glass Co., Ltd. No. 11, capacity 110 ml), and hexanoic acid diluted 100 times with propylene glycol, nonanoic acid diluted 10 times with propylene glycol, or isovaleric acid diluted 1000 times with propylene glycol, as a malodor, and a test substance were added dropwise in an amount of […] to the cotton balls. The glass bottle was left to stand overnight at room temperature, and the odor molecules were sufficiently volatilized in the glass bottle. A sensory evaluation test was carried out by a panel of three panelists (5 panelists for isovaleric acid), and while the intensity of odor in the case of adding dropwise the malodor alone was rated as 5, the intensity of the malodor in the case of incorporating a test substance was evaluated on the basis of a system of 20 grades from 0 point to 10 points (0.5 points per grade).
Regarding the test substance, florhydral (Givaudan SA), bourgeonal (Givaudan SA), hydroxycitronellal (Givaudan SA, International Flavors & Fragrances, Inc., and the like), 4-isopropylcyclohexanecarbaldehyde (synthesized according to a method described in JP-A-2-188549), 4-(2-methoxyphenyl)-2-methyl-2-butanol (JP-A-9-111281), florosa (Givaudan SA), isocyclocitral (Givaudan SA, International Flavors & Fragrances, Inc., and the like), tripral (International Flavors & Fragrances, Inc.), and Pollenal II (Kao Corp.), which had been diluted 100 times with propylene glycol, were used for hexanoic acid; florhydral that had been diluted 10 times with propylene glycol was used for nonanoic acid; and florhydral that had been diluted 1000 times with propylene glycol was used for isovaleric acid.

The target in a further test is T5, OR10A6 (Homo sapiens, UniProt Q8NH74).
T5 construct: expressed in transfected cells; host or cells: HEK293
T5 sequence (Q8NH74 1-314): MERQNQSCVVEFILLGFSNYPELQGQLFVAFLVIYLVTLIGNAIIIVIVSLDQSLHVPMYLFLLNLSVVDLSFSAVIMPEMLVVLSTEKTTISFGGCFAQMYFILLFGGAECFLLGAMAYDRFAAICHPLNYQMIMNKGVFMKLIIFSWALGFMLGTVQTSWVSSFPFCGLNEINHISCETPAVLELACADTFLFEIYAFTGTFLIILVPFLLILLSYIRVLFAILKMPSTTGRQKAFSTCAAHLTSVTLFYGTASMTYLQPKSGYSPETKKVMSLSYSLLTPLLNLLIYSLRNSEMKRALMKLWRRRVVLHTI
Briefly: Luciferase reporter gene assay, OR10A6 expressed in HEK293 cells. In kind it is cell-based. As for the experimental part:
as §1, §2, §3, §4
The inhibition ratios of the receptor response to test substances were calculated as follows. The emission value (Y) obtained from the cells in which the same receptors were introduced but no odor stimulation was conducted, was subtracted from the emission value derived from firefly luciferase (X) induced by odor stimulation with hexanoic acid alone. Similarly, the emission value (Y) obtained from the cells in which no odor stimulation was conducted, was subtracted from the emission value (Z) caused by stimulation with a mixture of hexanoic acid and a test substance. By the following calculation formula, the inhibitory activity of the test substance to receptor response was calculated based on the increment of the emission value (X−Y) caused by stimulation of hexanoic acid alone. Multiple independent experiments were performed in duplicate, and the average of each experiment was obtained. Inhibition ratio (%)={1−(Z−Y)/(X−Y)}×100

Where [2] appears, read: response to hexanoic acid, test substance added together with hexanoic acid, HEK293.
[3] abbreviates: fold increase of luciferase emission, 1 mM hexanoic acid or 300 μM nonanoic acid, or concentration series up to 1000 μM.

Results on three compounds are retold here after patent publication US9526680B2, “Method for searching for malodor control agent, malodor control agent, and malodor control method” (Kao Corporation, priority 2010, dated 2016).

The structures appear in SMILES notation.

Regarding `CC(C)(C)c1ccc(CCC=O)cc1` [Bourgeonal, 3-(4-tert-butylphenyl)propanal], the “Inhibition of OR2W1 response to hexanoic acid (in words)” value on OR2W1 was “in a concentration-dependent manner”. On OR2W1 (setting [2]), the “Inhibition ratio of OR2W1 response” value is recorded as 1 (Inhibition ratio: 50% or higher). Further, on OR51E1, the “Inhibition of OR51E1 response to hexanoic acid (in words)” value was “in a concentration-dependent manner”. Moreover, the “Inhibition ratio of OR51E1 response” value on OR51E1 (setting [2]) is 1 (Inhibition ratio: 50% or higher). The “Inhibition of OR51L1 response to hexanoic acid (in words)” value on OR51L1 was “in a concentration-dependent manner”. Further, the “Inhibition ratio of OR51L1 response” value on OR51L1 (setting [2]) is reported as 1 (Inhibition ratio: 50% or higher). The “Inhibition of OR51I2 response to hexanoic acid (in words)” value at OR51I2 was “in a concentration-dependent manner”. In addition, at OR51I2 (setting [2]), the “Inhibition ratio of OR51I2 response” value is on record as 1 (Inhibition ratio: 50% or higher). Also, the Intensity of odor in test [1] (hexanoic acid odor, malodor alone rated as 5, 0 to 10 points, test substance diluted 100 times with propylene glycol, three panelists) is listed as 3.13. Moreover, the “Inhibition of hexanoic acid odor (in words)” value in test [1] (sensory test, test substance diluted 100 times with propylene glycol (FIG. 5, Table 4)) was “markedly inhibited”.

`CC1=CC(C)C(CO)CC1` (stereo not drawn) [floralol, reference compound]: on OR2W1, the “Inhibition of OR2W1 response to hexanoic acid (in words)” value is reported as “no response inhibiting effect”. At OR51E1, the “Inhibition of OR51E1 response to hexanoic acid (in words)” value was “no response inhibiting effect”. Also, the “Inhibition of OR51L1 response to hexanoic acid (in words)” value at OR51L1 is given as “no response inhibiting effect”. Moreover, the “Inhibition of OR51I2 response to hexanoic acid (in words)” value on OR51I2 is reported as “no response inhibiting effect”. Besides, the “Inhibition of OR10A6 response (in words)” value on OR10A6 is reported as “no response inhibiting effect”.

For the compound `CCCCCCCCC(=O)O` [nonanoic acid, reference compound], at OR2W1 (setting [3]), the “Response of OR2W1 to the odor substance” value is reported as “exhibited response”. Besides, at OR51E1 (setting [3]), the “Response of OR51E1 to the odor substance” value is listed as “exhibited response”. Also, the “Response of OR10A6 to the odor substance” value at OR10A6 (setting [3]) is “exhibited response”.
